Here are results for 2 molecules from PMC4668926 (Biochemistry, 2015).

For assay [1], the target named is T1, KPR (ketopantoate reductase) (Staphylococcus aureus, UniProt A0A0J9X283).
T1 sequence (A0A0J9X283 1-286): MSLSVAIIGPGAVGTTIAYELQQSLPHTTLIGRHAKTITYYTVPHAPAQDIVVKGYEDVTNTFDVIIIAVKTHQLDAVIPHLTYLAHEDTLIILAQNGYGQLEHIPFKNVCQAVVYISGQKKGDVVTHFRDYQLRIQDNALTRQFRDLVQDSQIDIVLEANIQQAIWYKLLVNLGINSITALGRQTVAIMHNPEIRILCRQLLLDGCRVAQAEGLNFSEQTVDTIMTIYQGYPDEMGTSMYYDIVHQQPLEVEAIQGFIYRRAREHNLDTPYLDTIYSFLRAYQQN
Kind of assay: FRET titration, Trp167 to bound NADPH. In kind it is binding.

Assay [2] deals with Staphylococcus aureus ketopantoate reductase (Staphylococcus aureus). Kind of assay: AUC.

What is called Kd is the equilibrium constant for the complex coming apart. A low value points to tighter binding. In assay [1], `NC(=O)C1=CN([C@@H]2O[C@H](COP(=O)(O)OP(=O)(O)OC[C@H]3O[C@@H](n4cnc5c(N)ncnc54)[C@H](OP(=O)(O)O)[C@@H]3O)[C@@H](O)[C@H]2O)C=CC1` [NADPH] displayed a dissociation constant (Kd) of 58 ± 2 nM.

Usually stoichiometry N stands for the number of molecules, sites or subunits per partner or assembly. For the molecule “Staphylococcus aureus ketopantoate reductase (enzyme)”, the stoichiometry N in assay [2] is 2.
